# Assay results from patent publication US20090029997A1, “Thiazole Derivatives and Use Thereof” (LABORATOIRES SERONO SA, priority 2006, published 2009).
# Tests used:
# [1] = test system: Class I PI3-kinases; settings: Fruman et al., 1998; read-out: IC50 against each of the various Class I PI3-kinases; cited from earlier work
# [2] = target: Human recombinant GST-PI3Kγ (Homo sapiens, UniProt P48736); experiment: High throughput PI3K lipid kinase assay (SPA, neomycin-coated beads); format: biochemical; settings: 180 min at room temperature
# Sequence of Human recombinant GST-PI3Kγ (P48736 whole entry): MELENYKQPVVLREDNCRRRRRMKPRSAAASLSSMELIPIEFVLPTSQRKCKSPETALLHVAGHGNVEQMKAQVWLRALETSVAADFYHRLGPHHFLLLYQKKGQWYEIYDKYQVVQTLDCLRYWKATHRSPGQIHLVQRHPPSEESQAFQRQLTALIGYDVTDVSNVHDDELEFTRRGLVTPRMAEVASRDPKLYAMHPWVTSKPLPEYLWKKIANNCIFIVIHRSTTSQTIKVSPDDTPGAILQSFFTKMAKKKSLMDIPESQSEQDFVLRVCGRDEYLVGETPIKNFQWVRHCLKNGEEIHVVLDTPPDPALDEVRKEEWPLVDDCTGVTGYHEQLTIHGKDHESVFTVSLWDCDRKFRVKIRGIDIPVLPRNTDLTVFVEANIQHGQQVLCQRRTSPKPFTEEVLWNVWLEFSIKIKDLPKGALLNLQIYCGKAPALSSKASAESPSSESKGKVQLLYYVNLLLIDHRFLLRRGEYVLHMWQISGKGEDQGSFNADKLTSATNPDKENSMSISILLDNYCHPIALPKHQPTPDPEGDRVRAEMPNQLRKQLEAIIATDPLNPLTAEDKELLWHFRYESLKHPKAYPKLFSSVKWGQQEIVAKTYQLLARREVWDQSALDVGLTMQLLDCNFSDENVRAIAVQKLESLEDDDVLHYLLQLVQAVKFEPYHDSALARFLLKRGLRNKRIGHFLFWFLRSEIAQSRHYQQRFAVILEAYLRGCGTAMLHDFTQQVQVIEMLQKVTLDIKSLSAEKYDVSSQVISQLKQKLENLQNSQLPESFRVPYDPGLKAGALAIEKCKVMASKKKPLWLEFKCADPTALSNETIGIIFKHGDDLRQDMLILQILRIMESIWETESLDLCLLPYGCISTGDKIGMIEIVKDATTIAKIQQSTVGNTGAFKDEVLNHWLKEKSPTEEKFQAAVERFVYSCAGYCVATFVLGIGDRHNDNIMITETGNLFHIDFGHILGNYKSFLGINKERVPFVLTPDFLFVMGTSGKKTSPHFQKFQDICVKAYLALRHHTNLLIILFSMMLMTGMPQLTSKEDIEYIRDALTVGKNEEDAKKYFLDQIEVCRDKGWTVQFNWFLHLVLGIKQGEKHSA
# Text: a) High Throughput PI3K Lipid Kinase Assay (Binding Assay):
# The efficacy of compounds of the invention in inhibiting the PI3K induced-lipid phosphorylation may be tested in the following binding assay.
# The assay combines the scintillation proximity assay technology (SPA, Amersham) with the capacity of neomycin (a polycationic antibiotic) to bind phospholipids with high affinity and specificity. The Scintillation Proximity Assay is based on the properties of weakly emitting isotopes (such as ^3H, ^125I, ^33P). Coating SPA beads with neomycin allows the detection of phosphorylated lipid substrates after incubation with recombinant PI3K and radioactive ATP in the same well, by capturing the radioactive phospholipids to the SPA beads through their specific binding to neomycin.
# To a 384 wells MTP containing 5 μl of the test compound of Formula (I) (solubilized in 6% DMSO; to yield a concentration of 100, 30, 10, 3, 1, 0.3, 0.1, 0.03, 0.01, 01 μM of the test compound), the following assay components are added. 1) 5 μl (58 ng) of Human recombinant GST-PI3Kγ (in Hepes 40 mM, pH 7.4, DTT 1 mM and ethyleneglycol 5%) 2) 10 μl of lipid micelles and 3) 10 μl of Kinase buffer ([^33P]γ-ATP 45 μM/60 nCi, MgCl2 30 mM, DTT 1 mM, β-Glycerophosphate 1 mM, Na3VO4 100 μM, Na Cholate 0.3%, in Hepes 40 mM, pH 7.4). After incubation at room temperature for 180 minutes, with gentle agitation, the reaction is stopped by addition of 60 μl of a solution containing 100 μg of neomycin-coated PVT SPA beads in PBS containing ATP 10 mM and EDTA 5 mM. The assay is further incubated at room temperature for 60 minutes with gentle agitation to allow binding of phospholipids to neomycin-SPA beads. After precipitation of the neomycin-coated PVT SPA beads for 5 minutes at 1500×g, radioactive PtdIns(3)P is quantified by scintillation counting in a Wallac MicroBeta™ plate counter.
# The values indicated in Table I below refer to the IC50 (μM) with respect to PI3Kγ, i.e. the amount necessary to achieve 50% inhibition of said target. Said values show a considerable inhibitory potency of thiazole compounds with regard to PI3Kγ.
# [3] = test system: Akt/PKB phosphorylation in Raw 264-7 macrophages; experiment: Cell based ELISA of Akt/PKB phosphorylation after Complement 5a stimulation; settings: Mus musculus, RAW264.7, 50 nM Complement 5a for 5 minutes, inhibitor pretreatment 20 minutes, read-out: Cell Assay (P-Akt, Elisa) IC50
# Description: b) Cell Based ELISA to Monitor PI3K Inhibition:
# The efficacy of compounds of the invention in inhibiting the PI3K induced Akt/PKB phosphorylation may be tested in the following cell based assay.
# Measurement of Akt/PKB phosphorylation in macrophages after stimulation with Complement 5a: Raw 264: Raw 264-7 macrophages (cultured in DMEM-F12 medium containing 10% Fetal Calf serum and antibiotics) are plated at 20'000 cells/well in a 96 MTP 24 h before cell stimulation. Prior to the stimulation with 50 nM of Complement 5a during 5 minutes, Cells are serum starved for 2 h, and pretreated with inhibitors for 20 minutes. After stimulation cells are fixed in 4% formaldehyde for 20 minutes and washed 3 times in PBS containing 1% Triton X-100 (PBS/Triton). […] Next, phosphorylated Akt/PKB is detected by an overnight incubation at 4° C. with primary antibody (anti phospho Serine 473 Akt IHC, Cell Signaling) diluted 800-fold in PBS/Triton, containing 5% bovine serum albumin (BSA). After 3 washes in PBS/Triton, cells are incubated for 60 minutes with a peroxidase conjugated goat-anti-rabbit secondary antibody (1/400 dilution in PBS/Triton, containing 5% BSA), washed 3 times in PBS/Triton, and 2 times in PBS and further incubated in 100 μl of luminescent substrate reagent solution (Pierce) for 2 minutes, followed by the reading (1 s/well). […]
Compound,IC50 [1],IC50 [2],IC50 [3]
wortmannin,1 to 10 nM,–,–
"CC(=O)Nc1nc(C)c(-c2cn[nH]c2)s1 [Example 3, N-[4-methyl-5-(1H-pyrazol-4-yl)-1,3-thiazol-2-yl]acetamide]",–,413 nM,–
"CC(=O)Nc1nc(C)c(-c2cnn(S(=O)(=O)c3ccc(C(=O)O)cc3)c2)s1 [Example 14, 4-({4-[2-(acetylamino)-4-methyl-1,3-thiazol-5-yl]-1H-pyrazol-1-yl}sulfonyl)benzoic acid]",–,708 nM,–
"CC(=O)Nc1nc(C)c(-c2cnn(C(=O)NCCN(C)C)c2)s1 [Example 5, 4-[2-(acetylamino)-4-methyl-1,3-thiazol-5-yl]-N-[2-(dimethylamino)ethyl]-1H-pyrazole-1-carboxamide]",–,1230 nM,–
"COc1ccc(S(=O)(=O)n2cc(-c3sc(NC(C)=O)nc3C)cn2)cn1 [Example 7, N-(5-{1-[(6-methoxypyridin-3-yl)sulfonyl]-1H-pyrazol-4-yl}-4-methyl-1,3-thiazol-2-yl)acetamide]",–,282 nM,–
"CC(=O)Nc1nc(C)c(-c2cnn(C)c2)s1 [Example 1, N-[4-methyl-5-(1-methyl-1H-pyrazol-4-yl)-1,3-thiazol-2-yl]acetamide]",–,1340 nM,–
"CC(=O)Nc1nc(C)c(-c2cnn(S(=O)(=O)c3cn(C)cn3)c2)s1 [Example 8, N-(4-methyl-5-{1-[(1-methyl-1H-imidazol-4-yl)sulfonyl]-1H-pyrazol-4-yl}-1,3-thiazol-2-yl)acetamide]",–,111 nM,850 nM
